Measurements from patent US20250248403A1, “COMPOSITION FOR REDUCING AMOUNT OF REACTIVE OXYGEN” (KANEKA CORPORATION, priority 2022, published 2025).

Test system: soybeans (Fukuyutaka)
Test: Electron transfer rate (ETR) by PAM fluorometry after foliar spraying and paraquat application
Assay type: in vivo, soybean
Settings: 24 h after paraquat
Text: In FIG. 1 to FIG. 18 related to the examples, the relative value indicated above each bar chart in each drawing means a relative value when T1 in each drawing is 100. When an X % increase (relative to T2) is indicated above each bar chart in each drawing, it means that the value increases by X % relative to the value of T2 in each drawing. When a Y % decrease (relative to T2) is indicated above each bar chart in each drawing, it means that the value decreases by Y % relative to the value of T2 in each drawing.
A 9 cm poly pot was filled with culture soil and seeded with three soybeans (Fukuyutaka).
After seeding, the soybeans were cultivated in an incubator set in a light period (6:00-18:00, temperature 26° C., illuminance 120 μmol/m^2·s) and a dark period (18:00-6:00, temperature 18° C.). After germination, they were thinned to one plant.
(§1) After the first true leaf development, in each of the following treatments, foliar spraying of the following liquid (composition for reducing reactive oxygen) was conducted on each plant (application of the composition for reducing reactive oxygen). Twenty-four hours after the foliar spraying, foliar spraying of a paraquat aqueous solution with SILWET L-77 added to make a 1,000-fold dilution was conducted on each plant, except for a Control (T1) (paraquat application).
Electron transfer rate (ETR) was measured by pulse amplitude modulated fluorometry (PAM fluorometry) twenty-four hours after the paraquat application. In addition, twenty-four hours after the paraquat application, a SPAD value was measured using a chlorophyll meter.
as §1, with “for the” for “for a”
ETR was measured by the PAM fluorometry twenty-four hours after the paraquat application. In addition, twenty-four hours after the paraquat application, a SPAD value was measured using a chlorophyll meter.
After seeding, the soybeans were cultivated in an incubator set in a light period (6:00-18:00, temperature 26° C., illuminance 120 μmol/m^2·s)

| Substance | ETR compared with T2 (Experimental Example 3, T3: SF diluted 10000 times, PAR 1496) | ETR compared with T2 (Experimental Example 6, T3: SF diluted 10000 times, PAR 1496) | ETR compared with T2 (Experimental Example 9, T3: SF diluted 2000 times, PAR 1455) | ETR compared with T2 (Experimental Example 4, T3: SL diluted 1000 times, PAR 1496) |
| --- | --- | --- | --- | --- |
| surfactin Na [SF] | slightly increased | slightly increased | significantly increased | – |
| sophorolipid [SL] | – | – | – | slightly increased |
